{"source": "ChEMBL document CHEMBL1201862", "about": "“PubChem BioAssay data set” (2004)", "key": {"[1]": {"target": "T1, Endoribonuclease toxin MazF (Escherichia coli K-12, UniProt P0AE70)", "T1 sequence (P0AE70 whole entry)": "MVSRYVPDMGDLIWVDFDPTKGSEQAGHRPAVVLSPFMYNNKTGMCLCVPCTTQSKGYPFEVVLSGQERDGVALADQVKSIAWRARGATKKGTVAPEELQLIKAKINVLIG", "assay": "fluorescent RNA oligo signal without MazF, dose response, counter-screen for MazEF activator project, biochemical, fluorescence, single-stranded RNase substrate (AID 588502)", "assay_type": "functional"}, "[2]": {"target": "T1, Endoribonuclease toxin MazF", "assay": "MazF toxin RNase activators, dose response, biochemical, fluorescence, single-stranded RNA substrate, uHTS hits (AID 588481)", "assay_type": "functional"}, "INS1": {"tested_on": "INS1", "assay": "beta cell apoptosis inhibitors, cytokine rescue, dose response, luminescence, retest (AID 449756);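 also: cell death triggered by IL-1 beta plus TNF-alpha plus IFN-gamma mixture; protective hits raise ATP signal compared with cytokine alone wells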", "assay_type": "functional, cell-based", "conditions": "Rattus norvegicus"}, "A-375": {"tested_on": "A-375", "assay": "A375 melanoma cell viability reduction, dose response, counter-screen for MITF modulator project, cherry-pick samples, set 2 (AID 540335)", "assay_type": "functional, cell-based", "conditions": "Homo sapiens"}, "BJ [3]": {"tested_on": "BJ", "assay": "cells", "assay_type": "functional, cell-based", "conditions": "Homo sapiens"}, "[4]": {"assay": "cytotoxicity toward DRD oncogenic fibroblasts, dose response, cell-based, non-viral oncogenic, luminescence (AID 1934)", "assay_type": "functional", "conditions": "Homo sapiens"}, "[5]": {"assay": "NIH-3T3 fibroblast cytotoxicity, dose response, cytotoxicity control, cell-based, fluorescence, Alamar Blue, secondary assay (AID 2327);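 also: NIH-3T3 mouse fibroblasts cultured with fluconazole at 8 µg/mL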", "assay_type": "functional"}, "BJ [6]": {"tested_on": "BJ", "assay": "cytotoxicity toward BJ-TERT-LT-ST fibroblasts, dose response, cell-based, RAS-independent, luminescence (AID 1935);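 also: BJ fibroblasts immortalized with TERT plus LT and ST oncogenes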", "assay_type": "functional", "conditions": "Homo sapiens"}, "[7]": {"assay": "C. albicans growth with fluconazole, confirmation, fluorescence, retest (AID 2467)", "assay_type": "functional, cell-based"}, "BJ [8]": {"tested_on": "BJ", "assay": "cytotoxicity toward BJ-TERT fibroblasts, dose response, cell-based, RAS-independent, luminescence (AID 1933)", "assay_type": "functional", "conditions": "Homo sapiens"}, "[9]": {"target": "T2, Microphthalmia-associated transcription factor (Homo sapiens, UniProt O75030)", "T2 sequence (O75030 whole entry)": "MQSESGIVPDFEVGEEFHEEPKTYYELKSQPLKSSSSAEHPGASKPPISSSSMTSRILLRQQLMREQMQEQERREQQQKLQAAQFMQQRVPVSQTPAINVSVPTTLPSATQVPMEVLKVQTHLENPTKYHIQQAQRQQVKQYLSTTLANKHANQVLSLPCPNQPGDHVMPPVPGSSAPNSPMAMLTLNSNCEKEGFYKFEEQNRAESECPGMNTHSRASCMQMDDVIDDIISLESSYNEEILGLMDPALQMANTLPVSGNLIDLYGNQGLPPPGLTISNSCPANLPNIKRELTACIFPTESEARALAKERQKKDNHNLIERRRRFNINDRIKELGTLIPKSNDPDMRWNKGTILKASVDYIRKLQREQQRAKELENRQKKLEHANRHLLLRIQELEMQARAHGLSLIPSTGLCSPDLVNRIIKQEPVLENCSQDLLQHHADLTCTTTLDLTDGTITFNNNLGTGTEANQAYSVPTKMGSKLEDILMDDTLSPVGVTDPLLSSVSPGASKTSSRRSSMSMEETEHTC", "assay": "TRPM1 promoter luciferase signal decrease, dose response, MITF inhibitor project, cell-based, SK-MEL-5, cherry-picked, set 3 (AID 493073)", "assay_type": "functional"}, "[10]": {"assay": "cytotoxicity in HEK-293T cells, dose response, cytotoxicity control for BCR NF-kB inhibitor project, luminescence, B-cell screen hits (AID 489021);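 also: HEK-293T cells carrying an NF-kB luciferase reporter; cells exposed to compound for about 14 hours before viability readout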", "assay_type": "functional, cell-based"}, "[11]": {"target": "T3, Short transient receptor potential channel 4 (Mus musculus, UniProt Q9QUQ5)", "T3 sequence (Q9QUQ5 whole entry)": "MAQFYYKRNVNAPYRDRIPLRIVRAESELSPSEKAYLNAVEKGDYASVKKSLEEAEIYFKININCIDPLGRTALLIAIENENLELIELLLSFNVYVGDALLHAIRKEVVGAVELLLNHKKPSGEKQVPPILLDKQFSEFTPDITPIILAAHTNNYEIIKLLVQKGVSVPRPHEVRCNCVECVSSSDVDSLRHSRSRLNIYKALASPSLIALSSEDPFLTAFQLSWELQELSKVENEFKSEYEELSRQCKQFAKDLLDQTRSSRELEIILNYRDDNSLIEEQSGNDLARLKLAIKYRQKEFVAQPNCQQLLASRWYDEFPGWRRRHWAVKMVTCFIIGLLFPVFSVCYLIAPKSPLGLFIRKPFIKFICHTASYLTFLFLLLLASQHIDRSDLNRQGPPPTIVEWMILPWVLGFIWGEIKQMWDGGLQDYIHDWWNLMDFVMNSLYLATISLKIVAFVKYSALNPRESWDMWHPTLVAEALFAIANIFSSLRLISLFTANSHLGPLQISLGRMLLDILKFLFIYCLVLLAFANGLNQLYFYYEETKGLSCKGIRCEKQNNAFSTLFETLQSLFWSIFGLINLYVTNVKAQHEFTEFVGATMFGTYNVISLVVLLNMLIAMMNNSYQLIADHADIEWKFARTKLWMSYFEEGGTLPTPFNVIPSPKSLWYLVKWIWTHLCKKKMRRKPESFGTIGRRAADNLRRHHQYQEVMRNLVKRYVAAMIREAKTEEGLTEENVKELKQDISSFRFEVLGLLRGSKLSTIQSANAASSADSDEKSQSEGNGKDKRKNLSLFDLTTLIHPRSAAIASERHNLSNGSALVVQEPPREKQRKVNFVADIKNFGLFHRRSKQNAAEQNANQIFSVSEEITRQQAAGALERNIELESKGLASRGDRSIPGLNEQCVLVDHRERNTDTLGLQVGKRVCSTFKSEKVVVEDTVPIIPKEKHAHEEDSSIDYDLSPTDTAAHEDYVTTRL", "assay": "SAR Analysis for the identification of selective inhibits of the transient receptor potential cation channel C4 (TRPC4): Automated Electrophysiology_2. [Related pubchem assays (depositor defined):AID2256]", "assay_type": "functional"}, "[12]": {"target": "T3, Short transient receptor potential channel 4", "assay": "TRPC4 inhibitor concentration-response, dose response, cell-based, HEK293 TRPC4/mu-opioid, DAMGO stimulus, Fluo-4 (AID 492994)", "assay_type": "functional"}}, "note": "Activity calls are given as the source filed them.", "data": [{"molecule": "C=CCn1c(=N)c(S(=O)(=O)c2ccc(C)c(C)c2)cc2c(=O)n3ccccc3nc21", "values": [{"measurement": "EC50", "setting": "[1]", "result": "52.2 µM (inactive)"}, {"measurement": "EC50", "setting": "[2]", "result": "31.9 µM (inactive)"}]}, {"molecule": "Cc1ccc(C(=O)Cn2cc(-c3ccc(C)cc3)[n+]3c2CCCCC3)cc1", "values": [{"measurement": "AC50", "setting": "INS1", "result": "1.3 µM (active)"}, {"measurement": "AC50", "setting": "A-375", "result": "40.5 µM (active)"}, {"measurement": "EC50", "setting": "BJ [3]", "result": "> 150 µM (not active)"}, {"measurement": "EC50", "setting": "[4]", "result": "85.7 µM (active)"}, {"measurement": "EC50", "setting": "[5]", "result": "> 150 µM (inactive)"}, {"measurement": "EC50", "setting": "BJ [6]", "result": "> 150 µM (not active)"}, {"measurement": "EC50", "setting": "[7]", "result": "1.32 µM (active)"}, {"measurement": "EC50", "setting": "BJ [8]", "result": "17.3 µM (active)"}, {"measurement": "AC50", "setting": "[9]", "result": "3.63 µM (active)"}, {"measurement": "IC50", "setting": "[10]", "result": "> 80 µM (inactive)"}]}, {"molecule": "Cc1cc(N2CCOc3ccccc32)nc2ccccc12", "values": [{"measurement": "IC50", "setting": "[11]", "result": "24.5 µM (active)"}, {"measurement": "IC50", "setting": "[12]", "result": "12 µM (active)"}]}]}
